Earlier results in US20040116351A1, “Method for enhancing the natural reward system for exercise” (FAST BALANCE, INC., priority 2002, published 2004).

Settings: administered PEA

## NCCc1ccccc1 [PEA, phenylethylamine]
  Time PEA lasts in the body: ≤ 10 min
